≈ marks a conversion by molar mass, not a printed value. Where two headings read alike, the source gives them in different places.
Key:
S. aureus = test: Serial twofold agar dilution (Mueller-Hinton agar), S. aureus; assay type: cell-based; details: Staphylococcus aureus
Method in brief: (§1)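 Compound was diluted twofold serially into Mueller-Hinton agar plates. Organisms were then applied with Steers' apparatus, and the MIC was read for each strain in a 31-organism primary panel and a 61-strain P. aeruginosa set.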

E. coli = test: Serial twofold agar dilution (Mueller-Hinton agar), E. coli; assay type: cell-based; details: Escherichia coli
Method in brief: as §1

K. pneumoniae = test: Serial twofold agar dilution (Mueller-Hinton agar), K. pneumoniae; assay type: cell-based; details: Klebsiella pneumoniae, K. pneumoniae A9977, Table 8, read-out: MIC
Method in brief: as §1

Klebsiella sp. = test: Serial twofold agar dilution (Mueller-Hinton agar), Klebsiella sp.; assay type: cell-based; details: Klebsiella sp. A20452, Mueller-Hinton agar, Table 8, read-out: MIC
Method in brief: as §1

E. cloacae = test: Serial twofold agar dilution (Mueller-Hinton agar), E. cloacae; assay type: cell-based; details: Enterobacter cloacae
Method in brief: as §1

P. mirabilis = test: Serial twofold agar dilution (Mueller-Hinton agar), P. mirabilis; assay type: cell-based; details: Proteus mirabilis, P. mirabilis A9900; Mueller-Hinton agar; Table 8; read-out: MIC
Method in brief: as §1

P. vulgaris = test: Serial twofold agar dilution (Mueller-Hinton agar), P. vulgaris; assay type: cell-based; details: Proteus vulgaris, P. vulgaris A9539, Table 8, read-out: MIC
Method in brief: as §1

P. morganii = test: Serial twofold agar dilution (Mueller-Hinton agar), P. morganii; assay type: cell-based; details: Morganella morganii, P. morganii A9553, Table 8, read-out: MIC
Method in brief: as §1

S. enteritidis = test: Serial twofold agar dilution (Mueller-Hinton agar), S. enteritidis; assay type: cell-based; details: Salmonella enterica, S. enteritidis A9531, Table 8, read-out: MIC
Method in brief: as §1

S. marcescens = test: Serial twofold agar dilution (Mueller-Hinton agar), S. marcescens; assay type: cell-based; details: Serratia marcescens, S. marcescens A20019, Table 8
Method in brief: as §1

Pseudomonas aeruginosa = test: Serial twofold agar dilution (Mueller-Hinton agar), P. aeruginosa; assay type: cell-based; details: Pseudomonas aeruginosa
Method in brief: as §1

Pseudomonas sp. = test: Serial twofold agar dilution (Mueller-Hinton agar), Pseudomonas sp.; assay type: cell-based; details: Pseudomonas sp. A20358, Table 8, read-out: MIC
Method in brief: as §1

[1] = Mouse blood levels after subcutaneous administration; details: in vivo, sc, 20 mg/kg
Protocol: Mouse blood levels of BB-[…] and BB-[…] were determined by subcutaneous administration of 20 mg/kg of the penicillin to groups of three mice. Blood samples collected from orbital sinuses were assayed by the paper disk agar-diffusion method on Sarcina lutea PC1 1001 plates.

`CC1(C)S[C@@H]2[C@H](NC(=O)C(C(=O)O)c3ccccc3)C(=O)N2[C@H]1C(=O)O` (stereo partly drawn) [Carbenicillin, reference compound] gave an MIC (S. aureus; S. aureus A15097, Table 8, read-out: MIC) of 50 µg/mL (≈ 132 µM), an MIC (S. aureus; S. aureus A20239, Table 8, read-out: MIC) of 6.3 µg/mL (≈ 16.6 µM) and an MIC (S. aureus; S. aureus A20240, Table 8, read-out: MIC) of 3.1 µg/mL (≈ 8.19 µM). The MIC (S. aureus; S. aureus A20701, Table 8, read-out: MIC) was 50 µg/mL (≈ 132 µM), the MIC (S. aureus; S. aureus BX-1633 A9606, Table 8, read-out: MIC) was 6.3 µg/mL (≈ 16.6 µM) and the MIC (S. aureus; S. aureus Smith A9537, Table 8, read-out: MIC) was 0.2 µg/mL (≈ 0.529 µM). For the same compound, the MIC (E. coli; E. coli A9635, Table 8, read-out: MIC) was 6.3 µg/mL (≈ 16.6 µM), the MIC (E. coli; E. coli A9844, Table 8, read-out: MIC) was 0.4 µg/mL (≈ 1.06 µM) and the MIC (E. coli; E. coli A20366, Table 8, read-out: MIC) was > 100 µg/mL. For the same compound, the MIC (E. coli; E. coli A20520, Table 8, read-out: MIC) was 1.6 µg/mL (≈ 4.23 µM), the MIC (E. coli; E. coli A20664, Table 8, read-out: MIC) was 0.8 µg/mL (≈ 2.11 µM) and the MIC (E. coli; E. coli A20732, Table 8, read-out: MIC) was > 100 µg/mL. The MIC (E. coli; E. coli A20898, Table 8, read-out: MIC) was > 100 µg/mL, the MIC (E. coli; E. coli Juhl A15119, Table 8, read-out: MIC) was 3.1 µg/mL (≈ 8.19 µM) and the MIC (E. coli; E. coli NIHJ, Table 8, read-out: MIC) was 0.4 µg/mL (≈ 1.06 µM). The MIC (K. pneumoniae) was 3.1 µg/mL (≈ 8.19 µM), the MIC (Klebsiella sp.) was 6.3 µg/mL (≈ 16.6 µM) and the MIC (E. cloacae; E. cloacae A9656, Table 8) was 3.1 µg/mL (≈ 8.19 µM). It also gave an MIC (E. cloacae; E. cloacae A9657, Table 8) of 25 µg/mL (≈ 66.1 µM), an MIC (E. cloacae; E. cloacae A9659, Table 8) of 3.1 µg/mL (≈ 8.19 µM) and an MIC (P. mirabilis) of 0.4 µg/mL (≈ 1.06 µM). The MIC (P. vulgaris) was 1.6 µg/mL (≈ 4.23 µM), the MIC (P. morganii) was > 100 µg/mL and the MIC (S. enteritidis) was 0.8 µg/mL (≈ 2.11 µM). For the same compound, the MIC (S. marcescens) was 3.1 µg/mL (≈ 8.19 µM), the MIC (Pseudomonas aeruginosa; 61 strains of P. aeruginosa, Table 9, read-out: Geometric mean of MIC) was 30 µg/mL (≈ 79.2 µM) and the MIC (Pseudomonas aeruginosa; ATCC19660, Pa-14 ATCC 19660 A20325, Mueller-Hinton agar, Table 9, read-out: MIC) was 50 µg/mL (≈ 132 µM). The MIC (Pseudomonas aeruginosa; GN315, Pa-27 GN315 A21294, Mueller-Hinton agar, Table 9, read-out: MIC) was 25 µg/mL (≈ 66.1 µM), the MIC (Pseudomonas aeruginosa; GN4925, Pa-45 GN 4925, Mueller-Hinton agar, Table 9, read-out: MIC) was 100 µg/mL (≈ 264 µM) and the MIC (Pseudomonas aeruginosa; P. aeruginosa A9843, Mueller-Hinton agar, Table 8, read-out: MIC) was 25 µg/mL (≈ 66.1 µM). The MIC (Pseudomonas aeruginosa; P. aeruginosa A9930, Mueller-Hinton agar, Table 8, read-out: MIC) was 25 µg/mL (≈ 66.1 µM), the MIC (Pseudomonas aeruginosa; P. aeruginosa A15150, Mueller-Hinton agar, Table 8, read-out: MIC) was 25 µg/mL (≈ 66.1 µM) and the MIC (Pseudomonas aeruginosa; P. aeruginosa A20717, Mueller-Hinton agar, Table 8, read-out: MIC) was 100 µg/mL (≈ 264 µM). It also gave an MIC (Pseudomonas aeruginosa; Pa-1 D15, Mueller-Hinton agar, Table 9, read-out: MIC) of 12.5 µg/mL (≈ 33 µM), an MIC (Pseudomonas aeruginosa; Pa-3 1449 V.A A9930, Mueller-Hinton agar, Table 9, read-out: MIC) of 12.5 µg/mL (≈ 33 µM) and an MIC (Pseudomonas aeruginosa; Pa-5 M4865, K.C A15150, Mueller-Hinton agar, Table 9, read-out: MIC) of 6.3 µg/mL (≈ 16.6 µM). For the same compound, the MIC (Pseudomonas aeruginosa; Pa-6 No. 5 Levitan A15194, Mueller-Hinton agar, Table 9, read-out: MIC) was > 100 µg/mL, the MIC (Pseudomonas aeruginosa; Pa-7 A9843, Mueller-Hinton agar, Table 9, read-out: MIC) was 50 µg/mL (≈ 132 µM) and the MIC (Pseudomonas aeruginosa; Pa-10 A21479, Mueller-Hinton agar, Table 9, read-out: MIC) was > 100 µg/mL. For the same compound, the MIC (Pseudomonas aeruginosa; Pa-12 A20653, Mueller-Hinton agar, Table 9, read-out: MIC) was 50 µg/mL (≈ 132 µM), the MIC (Pseudomonas aeruginosa; Pa-15 A20717, Mueller-Hinton agar, Table 9, read-out: MIC) was > 100 µg/mL and the MIC (Pseudomonas aeruginosa; Pa-16 #130 A20718, Mueller-Hinton agar, Table 9, read-out: MIC) was 6.3 µg/mL (≈ 16.6 µM). For the same compound, the MIC (Pseudomonas aeruginosa; Pa-17 H6, D114, Mueller-Hinton agar, Table 9, read-out: MIC) was 12.5 µg/mL (≈ 33 µM), the MIC (Pseudomonas aeruginosa; Pa-18 H8, D121, Mueller-Hinton agar, Table 9, read-out: MIC) was 3.1 µg/mL (≈ 8.19 µM) and the MIC (Pseudomonas aeruginosa; Pa-19 A20229, Mueller-Hinton agar, Table 9, read-out: MIC) was 12.5 µg/mL (≈ 33 µM). For the same compound, the MIC (Pseudomonas aeruginosa; Pa-24 A20896, Mueller-Hinton agar, Table 9, read-out: MIC) was > 100 µg/mL, the MIC (Pseudomonas aeruginosa; Pa-25 A20897, Mueller-Hinton agar, Table 9, read-out: MIC) was 3.1 µg/mL (≈ 8.19 µM) and the MIC (Pseudomonas aeruginosa; Pa-26 PS32, Mueller-Hinton agar, Table 9, read-out: MIC) was 0.4 µg/mL (≈ 1.06 µM). It also gave an MIC (Pseudomonas aeruginosa; Pa-28 C.P.H. 10527/72, Mueller-Hinton agar, Table 9, read-out: MIC) of 50 µg/mL (≈ 132 µM), an MIC (Pseudomonas aeruginosa; Pa-31 A20594, Mueller-Hinton agar, Table 9, read-out: MIC) of 12.5 µg/mL (≈ 33 µM) and an MIC (Pseudomonas aeruginosa; Pa-32 A20595, Mueller-Hinton agar, Table 9, read-out: MIC) of 50 µg/mL (≈ 132 µM). It also gave an MIC (Pseudomonas aeruginosa; Pa-33 A20598, Mueller-Hinton agar, Table 9, read-out: MIC) of 12.5 µg/mL (≈ 33 µM), an MIC (Pseudomonas aeruginosa; Pa-35, Mueller-Hinton agar, Table 9, read-out: MIC) of 100 µg/mL (≈ 264 µM) and an MIC (Pseudomonas aeruginosa; Pa-36, Mueller-Hinton agar, Table 9, read-out: MIC) of 1.6 µg/mL (≈ 4.23 µM). For the same compound, the MIC (Pseudomonas aeruginosa; Pa-37 A20130, Mueller-Hinton agar, Table 9, read-out: MIC) was 50 µg/mL (≈ 132 µM), the MIC (Pseudomonas aeruginosa; Pa-38 A20349, Mueller-Hinton agar, Table 9, read-out: MIC) was 100 µg/mL (≈ 264 µM) and the MIC (Pseudomonas aeruginosa; Pa-39 A20641, Mueller-Hinton agar, Table 9, read-out: MIC) was 12.5 µg/mL (≈ 33 µM). The MIC (Pseudomonas aeruginosa; Pa-42 A21229, Mueller-Hinton agar, Table 9, read-out: MIC) was > 100 µg/mL, the MIC (Pseudomonas aeruginosa; Pa-43 A21233, Mueller-Hinton agar, Table 9, read-out: MIC) was 50 µg/mL (≈ 132 µM) and the MIC (Pseudomonas aeruginosa; Pa-44 A21274, Mueller-Hinton agar, Table 9, read-out: MIC) was 50 µg/mL (≈ 132 µM). For the same compound, the MIC (Pseudomonas aeruginosa; Pa-52 A9926, Mueller-Hinton agar, Table 9, read-out: MIC) was 50 µg/mL (≈ 132 µM), the MIC (Pseudomonas aeruginosa; Pa-54 A20128, Mueller-Hinton agar, Table 9, read-out: MIC) was 50 µg/mL (≈ 132 µM) and the MIC (Pseudomonas aeruginosa; Pa-55 A20227, Mueller-Hinton agar, Table 9, read-out: MIC) was 50 µg/mL (≈ 132 µM). It also gave an MIC (Pseudomonas aeruginosa; Pa-57 A20546, Mueller-Hinton agar, Table 9, read-out: MIC) of 50 µg/mL (≈ 132 µM), an MIC (Pseudomonas aeruginosa; Pa-58 A20557, Mueller-Hinton agar, Table 9, read-out: MIC) of 50 µg/mL (≈ 132 µM) and an MIC (Pseudomonas aeruginosa; Pa-61 A20726, Mueller-Hinton agar, Table 9, read-out: MIC) of 50 µg/mL (≈ 132 µM). For the same compound, the MIC (Pseudomonas aeruginosa; Pa-62 A21213, Mueller-Hinton agar, Table 9, read-out: MIC) was > 100 µg/mL, the MIC (Pseudomonas aeruginosa; Pa-66 A21434, Mueller-Hinton agar, Table 9, read-out: MIC) was 50 µg/mL (≈ 132 µM) and the MIC (Pseudomonas aeruginosa; Pa-67 A21509, Mueller-Hinton agar, Table 9, read-out: MIC) was 50 µg/mL (≈ 132 µM). The MIC (Pseudomonas aeruginosa; Pa-68 A21510, Mueller-Hinton agar, Table 9, read-out: MIC) was 50 µg/mL (≈ 132 µM), the MIC (Pseudomonas aeruginosa; Pa-69 A21587, Mueller-Hinton agar, Table 9, read-out: MIC) was 100 µg/mL (≈ 264 µM) and the MIC (Pseudomonas sp.) was 3.1 µg/mL (≈ 8.19 µM). It also gave a concentration at 0.25 h [1] of 11500 ng/mL, a concentration at 0.5 h [1] of 9000 ng/mL and a concentration at 1 h [1] of 5800 ng/mL.

Source: US4231928A, “Antibacterial agents” (priority 1979, dated 1980)
